In US10004732B2 (Novartis AG, priority 2014, dated 2018):
Where two headings read alike, the source gives them in different places.

Key:
PI 3-kinase alpha [1] = biological target: T1, PI 3-kinase alpha (Homo sapiens, UniProt P42336); experiment: Kinase Glo Luminescent Kinase Assay (Kglo), assay A; type: biochemical; details: read-out: Assay A PI3Kα IC50
Target sequence in this assay (P42336 whole entry): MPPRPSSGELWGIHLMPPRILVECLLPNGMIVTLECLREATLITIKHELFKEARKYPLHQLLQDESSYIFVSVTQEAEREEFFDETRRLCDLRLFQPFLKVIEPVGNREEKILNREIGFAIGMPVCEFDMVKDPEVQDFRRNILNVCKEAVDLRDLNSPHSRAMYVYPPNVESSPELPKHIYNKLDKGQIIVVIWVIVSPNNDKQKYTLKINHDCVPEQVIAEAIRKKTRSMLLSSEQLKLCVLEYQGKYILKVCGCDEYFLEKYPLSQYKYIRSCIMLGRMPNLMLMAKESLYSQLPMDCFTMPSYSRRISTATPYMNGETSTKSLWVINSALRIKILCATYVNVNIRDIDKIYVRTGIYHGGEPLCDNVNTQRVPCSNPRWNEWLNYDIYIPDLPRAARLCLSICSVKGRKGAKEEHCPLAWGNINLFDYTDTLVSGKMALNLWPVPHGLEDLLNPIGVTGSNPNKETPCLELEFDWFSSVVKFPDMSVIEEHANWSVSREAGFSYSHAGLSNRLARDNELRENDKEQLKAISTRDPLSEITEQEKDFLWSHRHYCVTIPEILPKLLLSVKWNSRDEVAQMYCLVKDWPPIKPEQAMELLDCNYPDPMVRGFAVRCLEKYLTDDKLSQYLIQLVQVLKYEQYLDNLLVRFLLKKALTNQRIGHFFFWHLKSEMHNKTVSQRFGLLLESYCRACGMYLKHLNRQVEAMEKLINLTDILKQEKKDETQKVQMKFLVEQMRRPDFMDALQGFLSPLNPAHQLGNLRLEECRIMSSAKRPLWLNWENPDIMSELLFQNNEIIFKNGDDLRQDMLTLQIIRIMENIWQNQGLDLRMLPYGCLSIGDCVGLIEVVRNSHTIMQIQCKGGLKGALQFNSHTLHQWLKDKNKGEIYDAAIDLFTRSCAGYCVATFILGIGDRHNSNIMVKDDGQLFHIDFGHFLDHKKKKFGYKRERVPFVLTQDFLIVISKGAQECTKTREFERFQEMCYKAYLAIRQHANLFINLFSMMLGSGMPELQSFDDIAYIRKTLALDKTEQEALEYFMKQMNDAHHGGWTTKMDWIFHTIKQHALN

PI 3-kinase beta [2] = biological target: T2, PI 3-kinase beta (Homo sapiens, UniProt P42338); experiment: Kinase Glo Luminescent Kinase Assay (Kglo), assay B; type: biochemical; details: read-out: Assay B PI3Kβ IC50
Vps34 = Vps34 (Homo sapiens, UniProt Q8NEB9); experiment: Kinase Glo Luminescent Kinase Assay (Kglo), assay C; type: biochemical
PI 4-kinase beta = PI 4-kinase beta (Homo sapiens, UniProt Q9UBF8); experiment: Kinase Glo Luminescent Kinase Assay (Kglo), assay D; type: biochemical
PI 3-kinase gamma [3] = biological target: T3, PI 3-kinase gamma (Homo sapiens, UniProt P48736); experiment: TR-FRET Adapta assay, assay E; type: biochemical; details: read-out: Assay E PI3Kγ IC50
mTOR = mTOR (Homo sapiens, UniProt P42345); experiment: Lanthascreen kinase binding assay, assay G; details: Assay G mTOR IC50 (μM)
Description: Lanthascreen™ Kinase Binding Assay for mTOR (G)
Binding of an inhibitor to the kinase competes for binding with the tracer, resulting in a loss of FRET.
50 nL of compound dilutions were dispensed onto white 384-well small volume polystyrene plate.

PI 3-kinase alpha [4] = biological target: T1, PI 3-kinase alpha; experiment: Cellular assay H1, p-Akt (S473) in Rat-1 cells, Surefire format; type: cell-based
Target sequence in this assay (P42336 whole entry): as above
Target sequence in this assay (Q63787 whole entry partner): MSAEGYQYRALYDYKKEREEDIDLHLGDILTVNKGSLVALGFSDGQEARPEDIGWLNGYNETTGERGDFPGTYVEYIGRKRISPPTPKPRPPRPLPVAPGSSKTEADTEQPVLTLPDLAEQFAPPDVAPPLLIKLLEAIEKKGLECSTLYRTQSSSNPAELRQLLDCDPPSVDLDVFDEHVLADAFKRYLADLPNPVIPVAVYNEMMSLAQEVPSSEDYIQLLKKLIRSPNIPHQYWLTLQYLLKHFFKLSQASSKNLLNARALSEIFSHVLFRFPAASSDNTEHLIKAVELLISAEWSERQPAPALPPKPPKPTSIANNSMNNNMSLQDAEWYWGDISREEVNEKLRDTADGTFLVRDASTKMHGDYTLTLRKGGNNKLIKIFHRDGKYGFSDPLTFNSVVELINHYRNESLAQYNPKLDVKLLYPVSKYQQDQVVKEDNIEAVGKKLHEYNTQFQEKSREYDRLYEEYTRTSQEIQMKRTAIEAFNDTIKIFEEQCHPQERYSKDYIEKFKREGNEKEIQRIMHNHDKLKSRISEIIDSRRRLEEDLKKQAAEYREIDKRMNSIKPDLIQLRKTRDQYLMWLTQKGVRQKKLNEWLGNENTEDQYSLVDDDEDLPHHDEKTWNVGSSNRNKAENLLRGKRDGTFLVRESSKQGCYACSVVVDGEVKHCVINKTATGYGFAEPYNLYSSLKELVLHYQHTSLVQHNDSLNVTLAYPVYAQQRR

PI 3-kinase beta [5] = biological target: T2, PI 3-kinase beta; experiment: Cellular assay I1, p-Akt (S473) in Rat-1 cells, Surefire format; type: cell-based
PI 3-kinase delta [6] = biological target: T4, PI 3-kinase delta (Homo sapiens, UniProt O00329); experiment: Cellular assay J1, p-Akt (S473) in Rat-1 cells, Surefire format; type: cell-based
Target sequence in this assay (O00329 whole entry): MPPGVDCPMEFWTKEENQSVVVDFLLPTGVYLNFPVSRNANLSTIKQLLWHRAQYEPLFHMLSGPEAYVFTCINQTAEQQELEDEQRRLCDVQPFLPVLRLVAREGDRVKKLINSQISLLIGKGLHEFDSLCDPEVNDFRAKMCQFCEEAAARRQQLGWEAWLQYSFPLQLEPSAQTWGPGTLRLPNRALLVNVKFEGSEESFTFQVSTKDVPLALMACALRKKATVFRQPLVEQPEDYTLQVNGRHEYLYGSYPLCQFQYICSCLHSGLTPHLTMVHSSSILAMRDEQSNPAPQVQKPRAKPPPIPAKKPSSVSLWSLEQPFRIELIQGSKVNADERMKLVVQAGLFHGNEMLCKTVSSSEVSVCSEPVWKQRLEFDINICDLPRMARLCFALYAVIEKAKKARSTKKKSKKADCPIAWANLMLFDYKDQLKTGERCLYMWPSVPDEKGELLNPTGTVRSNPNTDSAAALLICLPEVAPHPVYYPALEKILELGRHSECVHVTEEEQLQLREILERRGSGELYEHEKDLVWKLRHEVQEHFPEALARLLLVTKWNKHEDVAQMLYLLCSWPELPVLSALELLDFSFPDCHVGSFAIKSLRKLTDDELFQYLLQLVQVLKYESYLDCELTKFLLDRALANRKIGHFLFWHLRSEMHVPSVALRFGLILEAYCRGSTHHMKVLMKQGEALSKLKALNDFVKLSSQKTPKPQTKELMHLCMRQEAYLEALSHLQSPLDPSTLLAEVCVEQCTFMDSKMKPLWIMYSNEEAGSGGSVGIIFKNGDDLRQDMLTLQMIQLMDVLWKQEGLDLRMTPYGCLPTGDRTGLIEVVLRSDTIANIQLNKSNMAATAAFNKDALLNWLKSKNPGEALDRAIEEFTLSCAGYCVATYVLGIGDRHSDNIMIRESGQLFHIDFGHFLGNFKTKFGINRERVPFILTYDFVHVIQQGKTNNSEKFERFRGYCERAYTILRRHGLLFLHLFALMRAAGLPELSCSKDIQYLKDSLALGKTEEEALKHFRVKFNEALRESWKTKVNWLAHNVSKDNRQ
Target sequence in this assay (Q63787 whole entry partner): as the sequence (Q63787 whole entry partner) above

PI 3-kinase gamma [7] = biological target: T3, PI 3-kinase gamma; experiment: Cellular U937 AKT assay K1 (MSD); type: cell-based; details: U937 cells, K1 format; read-out: Assay K1 PI3Kγ IC50
[8] = tested on: IL-8-induced neutrophil shape change in human whole blood; experiment: Whole blood neutrophil shape change assay (L); type: cell-based; details: Homo sapiens, Neutrophil, IL-8, human whole blood, read-out: Assay L WBSC IC50
Description: Whole Blood Neutrophil Shape Change Assay (L)
IL-8 was made up to 2 μM stocks in 0.1% bovine serum albumin/PBS and stored at −80° C. On the day IL-8 was diluted in PBS (phosphate buffered saline) 10 minutes before use. IL-8 was used at final concentration of 2 nM and a concentration range from 0.003 to 200 nM for the donor dose response curve.
Assay fixative solution was prepared fresh each day from 10× concentrated CellFIX™ solution diluted 1:10 in sterile distilled water and then 1:4 with PBS. Assay fixative solution was kept on ice prior to use.
A 10× lysis buffer was prepared in advance by dissolving 20.75 g NH4Cl and 2.5 g KHCO3 in 250 ml sterile H2O. This 10× lysis buffer was filtered under sterile conditions and stored for up to two weeks at 4° C. On the day a 1× lysis solution was prepared with sterile distilled H2O and kept on ice prior to use.
The test compounds were prepared as 10 mM stock solutions in 100% DMSO and were stored at 4° C. Once in use for an assay 10 mM stock compounds were thawed and stored at RT protected from light. Compound dilutions were prepared fresh on the day. The first series of dilutions in 100% DMSO were done first thing in the morning. Only once blood had been collected and arrived in laboratory was the next set of dilutions into PBS carried out (1:10 PBS, 10% DMSO). This limited the exposure of diluted compound to plastic and made sure the exposure timing was consistent between assays.
Compound dilutions in 100% DMSO were prepared as described previously. Human whole blood was collected in K2 EDTA Vacutainers. Once blood was in the laboratory, compound dilutions into PBS were carried out as described previously and depicted in Table 1.
The outer wells of the deep well assay plate were filled with 1200 μl of sterile distilled H2O in an effort to limit edge effects (rows A1-H1, A1-A12, A12-H12).
An IL-8 dose response was determined for each blood donor examined, to monitor the donor response to IL-8. At this step in assay preparation for the IL-8 dose response samples 10 μl of PBS was added to designated wells. In addition the assay window without DMSO was also assessed each day. For such samples at this step in assay preparation 10 μl of PBS was added in the place of 10% DMSO.
Lids were placed on the 96 well plates and samples were incubated for 15 minutes at 37° C. in a water-bath.
Following the compound pre-incubation 10× final IL-8 was added to appropriate wells (10 μl of 20 nM working stock IL-8, final IL-8 concentration in blood=2 nM) and 10 μl of PBS was added to the un-stimulated controls. 10× final dose response range IL-8 was also added to designated wells (final concentration range on assay plate was 200 nM to 0.0005 nM, 1:5 serial dilution in PBS). The IL-8 and PBS were added to appropriate wells across all assay plates in the same sequence as the blood to compound addition. […] Samples were incubated for 5 minutes at 37° C. in a water-bath. Following the incubation sample plates were transferred to ice where 250 μl of chilled Assay Fixative Buffer was added promptly to all wells.
Samples were incubated on ice for 7 minutes (no mixing). […] Once added samples were mixed once and incubated on ice for 30 minutes to achieve uniform red blood cells lysis. After lysis, 200 μl of sample was transferred to a 96 well microplate on ice. […] Granulocytes were identified based on differential side scatter (SSC) and forward scatter (FSC) characteristics.

[9] = rat, microsomes, 1 µM, pH 7.4
Description: (§1) The experiments were performed in 96-well glass plates at 37° C. on an automated Tecan EVO platform. Test compounds at a concentration of 10 mM in pure DMSO were diluted 1:1000 in water to 10 μM. […] Reactions were initiated by the addition of 150 μL of a cofactor solution containing 2 mM NADPH.

PI 3-kinase delta [10] = biological target: T4, PI 3-kinase delta; experiment: TR-FRET Adapta assay, assay F
Target sequence in this assay (O00329 whole entry): as the sequence (O00329 whole entry) above
Target sequence in this assay (P27986 461-568 partner): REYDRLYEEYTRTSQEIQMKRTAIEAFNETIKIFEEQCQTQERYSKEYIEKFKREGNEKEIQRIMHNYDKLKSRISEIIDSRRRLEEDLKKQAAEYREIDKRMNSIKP

PI 3-kinase alpha [11] = biological target: T1, PI 3-kinase alpha; experiment: Cellular assay H2, p-AKT (Ser473) in Rat-1 cells, HTRF format; type: cell-based; details: asterisked data: version H2 (HTRF format), read-out: Assay H PI3Kα IC50
Target sequence in this assay (P42336 whole entry): as the sequence (P42336 whole entry) above
Target sequence in this assay (Q63787 whole entry partner): as the sequence (Q63787 whole entry partner) above
Description: (§2) Cellular Assays for PI 3-Kinase Alpha (H2), Beta (12) and Delta (J2): HTRF (Homogeneous Time Resolved Fluorescence) Format
(§3) All cell lines were cultivated in complete growth medium (DMEM high glucose GlutaMAX™ Pyruvate, 10% (v/v) fetal bovine serum, 0.1 mM MEM NEAA, 25 mM HEPES, puromycin 10 μg/mL, 100 U/ml Penicillin, 100 μg/ml Streptomycin) to 90% confluency at 37° C./5% CO2/90% humidity in a humidified CO2 incubator and were split twice a week.
(§4) Semi-automated preparation of cell lysates: For low (inhibited) controls, 0.9 mM NVP-BGT226-AF-1 in 90% (v/v) DMSO was added to the compound master plate. For compound testing, the cells were seeded at a density of 4000 (Rat-1_PI3Kdelta), 8000 (Rat-1_PI3Kalpha), or 6500 (Rat-1_PI3Kbeta) cells in 30 μl complete growth medium into cell culture treated 384-well plates and were grown at 37° C./5% CO2/90% humidity for 24 h. 10 μl of the compound predilutions were transferred to the cells.

PI 3-kinase beta [12] = biological target: T2, PI 3-kinase beta; experiment: Cellular assay I2, p-AKT (Ser473) in Rat-1 cells, HTRF format; type: cell-based; details: asterisked data: version I2 (HTRF format), read-out: Assay I PI3Kβ IC50
Description: as §2, §3, §4

PI 3-kinase delta [13] = biological target: T4, PI 3-kinase delta; experiment: Cellular assay J2, p-AKT (Ser473) in Rat-1 cells, HTRF format; type: cell-based; details: asterisked data: version J2 (HTRF format), read-out: Assay J PI3Kδ IC50
Target sequence in this assay (O00329 whole entry): as the sequence (O00329 whole entry) above
Target sequence in this assay (Q63787 whole entry partner): as the sequence (Q63787 whole entry partner) above
Description: as §2, §3, §4

PI 3-kinase gamma [14] = biological target: T3, PI 3-kinase gamma; experiment: Cellular U937 AKT assay K2 (HTRF); type: cell-based; details: U937 cells, K2 format; read-out: Assay K2 PI3Kγ IC50
Description: In assays K1 and K2, the compounds were tested for their ability to inhibit the production of phosphorylated AKT (Protein Kinase B) generated in a PI 3-kinase gamma isoform-dependent process in a U937 human cell line.
Cellular U937 AKT Assay for PI 3-Kinase Gamma (K2)
U937 cells are split every 3-4 days: 5×10^6 cells/flask (175 cm^2) in 40 ml.
Semi-automated preparation of cell lysates: Cells were resuspended in HBSS, seeded (200′000 cells/well/60 μl) into a 384-well plate and incubated in a humidified 37° C., 5% CO2 incubator for 1.5 hours. The compounds were diluted with HBSS and 40 μl were added to the starved cells (except for wells 24 I-P). […] The cells were then incubated for 30 minutes at 37° C. and 5% CO2. Stimulation occurred during 3 minutes by addition of 20 μl MIP1α (final 10 ng/ml, diluted in HBSS) in the incubator. Wells 24 A-H were only stimulated with HBSS.
The stimulation was then stopped by putting the cell plates on ice (filled with cold water). The cells were then centrifuged at 1200 rpm and 4° C. for 3 minutes.
80 μl of supernatant was removed. The cells were again centrifuged at 1200 rpm and 4° C. for 3 minutes. The supernatant was then removed by turning plates upside down and 30 μl of lysis buffer were added. The plate was incubated at room temperature for 30 minutes under shaking. 16 μl were then transferred to a ProxiPlate Plus 384-well. 4 μl of the master mix (each conjugate diluted 1:20 with detection reagent) were added to each well and the plate was kept in the dark at room temperature for 4 hours.

[15] = Microsomal clearance assay (M); details: intrinsic clearance in rat liver microsomes
Description: as §1

Sequence of Vps34 (Q8NEB9 whole entry, species assumed): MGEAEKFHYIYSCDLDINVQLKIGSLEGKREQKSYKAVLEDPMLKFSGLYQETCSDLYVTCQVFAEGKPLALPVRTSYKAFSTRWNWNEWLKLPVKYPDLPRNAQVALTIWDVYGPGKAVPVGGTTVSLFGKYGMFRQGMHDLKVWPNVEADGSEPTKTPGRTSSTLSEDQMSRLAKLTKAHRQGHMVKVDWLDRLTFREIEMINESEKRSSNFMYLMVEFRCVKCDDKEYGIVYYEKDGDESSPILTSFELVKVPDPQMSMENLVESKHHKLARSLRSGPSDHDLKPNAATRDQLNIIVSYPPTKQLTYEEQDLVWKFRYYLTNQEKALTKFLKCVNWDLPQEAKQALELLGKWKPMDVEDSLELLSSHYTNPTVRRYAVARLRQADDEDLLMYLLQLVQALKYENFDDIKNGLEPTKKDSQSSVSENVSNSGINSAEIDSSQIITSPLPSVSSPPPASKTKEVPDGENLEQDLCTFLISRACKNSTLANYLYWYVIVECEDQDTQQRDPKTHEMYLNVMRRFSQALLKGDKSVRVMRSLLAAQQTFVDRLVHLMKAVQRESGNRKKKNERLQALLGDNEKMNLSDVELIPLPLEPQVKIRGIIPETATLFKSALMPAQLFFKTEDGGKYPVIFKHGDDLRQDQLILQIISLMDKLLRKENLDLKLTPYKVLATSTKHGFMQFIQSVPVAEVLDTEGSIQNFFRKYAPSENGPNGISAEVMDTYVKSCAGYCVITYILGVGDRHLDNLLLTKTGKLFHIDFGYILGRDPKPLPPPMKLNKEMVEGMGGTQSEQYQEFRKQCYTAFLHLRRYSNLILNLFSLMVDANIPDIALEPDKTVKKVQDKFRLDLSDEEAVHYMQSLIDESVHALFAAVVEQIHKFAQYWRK
Sequence of PI 4-kinase beta (Q9UBF8 whole entry): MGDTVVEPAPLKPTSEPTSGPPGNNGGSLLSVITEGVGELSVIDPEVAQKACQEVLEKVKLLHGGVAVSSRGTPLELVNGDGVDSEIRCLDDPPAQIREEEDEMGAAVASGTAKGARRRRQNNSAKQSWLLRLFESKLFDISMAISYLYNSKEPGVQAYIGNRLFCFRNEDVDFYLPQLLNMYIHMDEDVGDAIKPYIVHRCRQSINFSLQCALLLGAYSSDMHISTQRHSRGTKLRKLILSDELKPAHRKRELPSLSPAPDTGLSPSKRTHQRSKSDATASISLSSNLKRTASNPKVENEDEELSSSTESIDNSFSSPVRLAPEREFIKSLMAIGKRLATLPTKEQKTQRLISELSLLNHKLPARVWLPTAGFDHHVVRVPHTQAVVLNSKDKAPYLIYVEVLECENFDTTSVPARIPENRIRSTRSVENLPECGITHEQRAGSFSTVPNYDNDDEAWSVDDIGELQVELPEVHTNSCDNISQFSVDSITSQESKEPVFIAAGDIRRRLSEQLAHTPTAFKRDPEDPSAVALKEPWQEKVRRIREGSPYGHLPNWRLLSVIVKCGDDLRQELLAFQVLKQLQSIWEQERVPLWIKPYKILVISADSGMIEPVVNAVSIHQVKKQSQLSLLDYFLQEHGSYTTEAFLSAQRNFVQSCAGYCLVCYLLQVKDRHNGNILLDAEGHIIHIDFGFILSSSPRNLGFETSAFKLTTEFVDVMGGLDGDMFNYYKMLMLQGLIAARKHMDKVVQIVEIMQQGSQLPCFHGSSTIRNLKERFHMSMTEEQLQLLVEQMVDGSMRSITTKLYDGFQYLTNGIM

Row | IC50 (PI 3-kinase alpha [1]) [nM] | IC50 (PI 3-kinase beta [2]) [nM] | IC50 (PI 3-kinase gamma [3]) [nM] | IC50 (PI 4-kinase beta; read-out: Assay D PI4Kβ IC50) [µM] | IC50 (PI 3-kinase alpha [11]) [nM] | IC50 (PI 3-kinase beta [12]) [nM] | IC50 (PI 3-kinase delta [13]) [nM] | IC50 (PI 3-kinase gamma [14]) [nM] | Assay M RLM CI(int) [15] [µL/min/mg] | IC50 (Vps34; read-out: Assay C VPS34 IC50) [nM] | IC50 (PI 3-kinase delta [10]) [nM] | Structure (SMILES) | IC50 [8] [nM] | IC50 (PI 3-kinase delta [10]; read-out: Assay F PI3Kδ IC50) [nM] | further results
1 | 30 | 320 | 39 | 4.9 | 350 | 880 | 280 | 33 | 83 | – | – | Cc1ncc(-c2nc(-c3cc(S(=O)(=O)NCC4(CO)CCOCC4)ccc3C)cnc2N)s1 [Example 45.9, 3-(5-Amino-6-(2-methylthiazol-5-yl)pyrazin-2-yl)-N-((4-(hydroxymethyl)tetrahydro-2H-pyran-4-yl)methyl)-4-methylbenzenesulfonamide] | – | 100 | –
2 | 100 | 690 | 26 | 2.3 | 2140 | 4560 | 970 | 68 | 63 | 2500 | 670 | Cc1ncc(-c2nc(-c3cc(S(=O)(=O)N[C@H]4C[C@@H](O)C4)ccc3C)cnc2N)s1 [Example 43a, cis-3-(5-Amino-6-(2-methylthiazol-5-yl)pyrazin-2-yl)-N-(3-hydroxycyclobutyl)-4-methylbenzenesulfonamide] | 992 | – | –
3 | 230 | 1500 | 42 | 4.8 | 5440 | 2950 | 2180 | 180 | 45 | 5500 | 2200 | Cc1ncc(-c2nc(-c3cc(S(=O)(=O)N[C@H]4C[C@H](O)C4)ccc3C)cnc2N)s1 [Example 43b, trans-3-(5-Amino-6-(2-methylthiazol-5-yl)pyrazin-2-yl)-N-(3-hydroxycyclobutyl)-4-methylbenzenesulfonamide] | – | – | –

Row | Structure (SMILES) | IC50 (PI 3-kinase alpha [1]) [nM] | IC50 (PI 3-kinase beta [2]) [nM] | IC50 (PI 3-kinase gamma [3]) [nM] | IC50 (PI 4-kinase beta; read-out: Assay D PI4Kβ IC50) [µM] | IC50 (PI 3-kinase alpha [11]) [nM] | IC50 (PI 3-kinase beta [12]) [nM] | IC50 (PI 3-kinase delta [13]) [nM] | IC50 (PI 3-kinase gamma [14]) [nM] | Assay M RLM CI(int) [15] [µL/min/mg] | IC50 (Vps34; read-out: Assay C VPS34 IC50) [nM] | IC50 (PI 3-kinase delta [10]) [nM] | IC50 [8] [nM] | IC50 (PI 3-kinase delta [10]; read-out: Assay F PI3Kδ IC50) [nM] | further results
4 | Cc1ccc(S(=O)(=O)NC2CCOCC2)cc1-c1cnc(N)c(-n2cncn2)n1 [Example 68, 3-(5-Amino-6-(1H-1,2,4-triazol-1-yl)pyrazin-2-yl)-4-methyl-N-(tetrahydro-2H-pyran-4-yl)benzenesulfonamide] | 640 | 2550 | 72 | – | – | – | – | – | – | – | – | 1790 | 1500 | IC50 (Vps34): > 10000 nM; IC50 (PI 4-kinase beta; Assay D PI4Kβ IC50 (μM)): 4.4 µM; IC50 (mTOR): 8.75 µM; IC50 (PI 3-kinase alpha [4]): 2840 nM; IC50 (PI 3-kinase beta [5]): 6250 nM; IC50 (PI 3-kinase delta [6]): 3110 nM; IC50 (PI 3-kinase gamma [7]): 430 nM; Assay M RLM CI(int) [9]: 54 µL/min/mg
